{"source": "paper PMC4979471", "about": "(Cell Death Discovery, 2015)", "assay_in_all_cases": "Kinase selectivity, P33-radiolabeled assay", "type_in_all_cases": "biochemical", "settings_in_all_cases": "10 μM ATP", "key": {"[1]": {"molecular_target": "T1, SRPK1 (Homo sapiens, UniProt Q96SB4)", "T1 construct": "purchased Reaction Biology Corp", "T1 sequence (Q96SB4 whole entry)": "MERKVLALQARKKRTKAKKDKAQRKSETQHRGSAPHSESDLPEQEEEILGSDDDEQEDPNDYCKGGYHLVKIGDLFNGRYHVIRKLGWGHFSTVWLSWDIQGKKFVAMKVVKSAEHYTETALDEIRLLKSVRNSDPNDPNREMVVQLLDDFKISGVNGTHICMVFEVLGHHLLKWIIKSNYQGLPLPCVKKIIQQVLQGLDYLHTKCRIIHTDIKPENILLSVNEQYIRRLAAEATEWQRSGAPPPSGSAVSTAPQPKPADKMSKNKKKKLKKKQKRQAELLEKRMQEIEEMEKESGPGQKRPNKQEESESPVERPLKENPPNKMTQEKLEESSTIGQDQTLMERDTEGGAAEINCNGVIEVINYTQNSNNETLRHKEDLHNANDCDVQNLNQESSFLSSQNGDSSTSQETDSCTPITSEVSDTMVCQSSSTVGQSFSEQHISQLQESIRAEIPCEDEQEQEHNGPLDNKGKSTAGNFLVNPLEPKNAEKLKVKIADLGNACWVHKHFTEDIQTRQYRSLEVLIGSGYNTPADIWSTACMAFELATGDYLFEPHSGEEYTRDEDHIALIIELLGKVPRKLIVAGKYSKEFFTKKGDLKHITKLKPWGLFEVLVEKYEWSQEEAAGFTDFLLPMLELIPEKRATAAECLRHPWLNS", "procedure,_shortened": "(§1)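 ATP at 10 μM; test article at 10 μM, single point, two replicates. Output is activity as % of DMSO.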"}, "[2]": {"molecular_target": "T2, NEK2 (Homo sapiens, UniProt P51955)", "T2 construct": "purchased Reaction Biology Corp", "T2 sequence (P51955 1-445)": "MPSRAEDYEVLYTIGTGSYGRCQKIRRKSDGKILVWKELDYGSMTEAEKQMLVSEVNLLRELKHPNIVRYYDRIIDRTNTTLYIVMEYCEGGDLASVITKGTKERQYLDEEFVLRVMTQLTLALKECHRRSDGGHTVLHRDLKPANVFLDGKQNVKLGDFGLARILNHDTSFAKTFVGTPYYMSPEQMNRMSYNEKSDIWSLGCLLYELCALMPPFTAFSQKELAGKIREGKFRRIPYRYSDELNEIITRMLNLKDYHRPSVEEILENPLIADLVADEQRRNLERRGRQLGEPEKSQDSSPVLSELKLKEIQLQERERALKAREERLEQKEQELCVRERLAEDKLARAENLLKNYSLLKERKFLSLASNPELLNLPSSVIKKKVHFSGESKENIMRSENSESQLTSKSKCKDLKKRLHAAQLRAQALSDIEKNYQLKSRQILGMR", "procedure,_shortened": "as §1"}, "[3]": {"molecular_target": "T3, CDK1/cyclin B (Homo sapiens, UniProt P06493)", "T3 construct": "purchased Reaction Biology Corp", "T3 sequence (P06493 whole entry)": "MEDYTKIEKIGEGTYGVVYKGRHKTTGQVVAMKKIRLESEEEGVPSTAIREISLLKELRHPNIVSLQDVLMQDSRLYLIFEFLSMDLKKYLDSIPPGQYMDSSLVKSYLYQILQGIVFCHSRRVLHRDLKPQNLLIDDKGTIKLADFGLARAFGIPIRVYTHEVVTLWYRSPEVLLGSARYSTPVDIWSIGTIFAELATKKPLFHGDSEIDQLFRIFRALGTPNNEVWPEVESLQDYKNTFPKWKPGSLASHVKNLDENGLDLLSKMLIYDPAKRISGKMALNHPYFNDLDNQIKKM", "T3 sequence (P14635 whole entry partner)": "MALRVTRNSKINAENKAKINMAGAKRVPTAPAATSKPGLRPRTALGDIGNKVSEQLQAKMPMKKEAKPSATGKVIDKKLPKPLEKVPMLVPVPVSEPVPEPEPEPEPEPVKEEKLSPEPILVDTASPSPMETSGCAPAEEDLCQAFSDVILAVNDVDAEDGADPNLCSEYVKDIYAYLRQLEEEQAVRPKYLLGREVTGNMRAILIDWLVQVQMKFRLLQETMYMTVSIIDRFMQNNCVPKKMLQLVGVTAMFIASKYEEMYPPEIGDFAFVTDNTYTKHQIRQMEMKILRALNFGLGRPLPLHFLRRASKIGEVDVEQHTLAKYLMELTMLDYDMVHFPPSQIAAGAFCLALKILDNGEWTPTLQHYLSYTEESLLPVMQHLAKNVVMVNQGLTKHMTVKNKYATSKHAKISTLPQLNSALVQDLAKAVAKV", "procedure,_shortened": "as §1"}, "[4]": {"molecular_target": "T4, NEK6 (Homo sapiens, UniProt Q9HC98)", "T4 construct": "purchased Reaction Biology Corp", "T4 sequence (Q9HC98 whole entry)": "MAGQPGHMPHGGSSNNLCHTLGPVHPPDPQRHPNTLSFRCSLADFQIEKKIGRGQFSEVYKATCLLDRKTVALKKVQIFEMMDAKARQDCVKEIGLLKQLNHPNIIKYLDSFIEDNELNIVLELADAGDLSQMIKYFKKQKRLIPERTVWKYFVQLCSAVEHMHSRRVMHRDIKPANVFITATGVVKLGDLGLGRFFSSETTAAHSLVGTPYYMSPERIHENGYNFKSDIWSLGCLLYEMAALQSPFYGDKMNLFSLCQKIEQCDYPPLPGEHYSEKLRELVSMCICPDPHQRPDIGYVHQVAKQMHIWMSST", "procedure,_shortened": "as §1"}, "[5]": {"molecular_target": "T5, IRAK1 (Homo sapiens, UniProt P51617)", "T5 construct": "purchased Reaction Biology Corp", "T5 sequence (P51617 whole entry)": "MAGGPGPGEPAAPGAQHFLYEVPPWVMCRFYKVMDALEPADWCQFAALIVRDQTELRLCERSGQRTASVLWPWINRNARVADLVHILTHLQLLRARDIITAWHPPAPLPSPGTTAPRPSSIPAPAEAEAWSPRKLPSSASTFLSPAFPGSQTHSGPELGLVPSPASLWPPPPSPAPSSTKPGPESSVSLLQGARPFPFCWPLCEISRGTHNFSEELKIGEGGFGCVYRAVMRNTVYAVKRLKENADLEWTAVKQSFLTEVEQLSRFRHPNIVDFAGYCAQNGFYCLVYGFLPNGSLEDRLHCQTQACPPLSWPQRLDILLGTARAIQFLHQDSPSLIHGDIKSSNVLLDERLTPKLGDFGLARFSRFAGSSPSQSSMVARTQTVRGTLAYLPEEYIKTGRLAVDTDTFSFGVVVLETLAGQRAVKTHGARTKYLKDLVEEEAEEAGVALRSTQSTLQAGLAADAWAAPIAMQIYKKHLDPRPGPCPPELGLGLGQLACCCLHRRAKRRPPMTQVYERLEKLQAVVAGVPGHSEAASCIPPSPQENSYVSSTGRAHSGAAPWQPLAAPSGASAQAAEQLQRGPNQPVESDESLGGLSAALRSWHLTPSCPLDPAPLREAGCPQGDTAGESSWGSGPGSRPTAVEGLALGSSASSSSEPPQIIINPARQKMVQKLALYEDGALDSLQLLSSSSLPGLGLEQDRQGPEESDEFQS", "procedure,_shortened": "as §1"}, "[6]": {"molecular_target": "T6, EPHA1 (Homo sapiens, UniProt P21709)", "T6 construct": "purchased Reaction Biology Corp", "T6 sequence (P21709 26-976)": "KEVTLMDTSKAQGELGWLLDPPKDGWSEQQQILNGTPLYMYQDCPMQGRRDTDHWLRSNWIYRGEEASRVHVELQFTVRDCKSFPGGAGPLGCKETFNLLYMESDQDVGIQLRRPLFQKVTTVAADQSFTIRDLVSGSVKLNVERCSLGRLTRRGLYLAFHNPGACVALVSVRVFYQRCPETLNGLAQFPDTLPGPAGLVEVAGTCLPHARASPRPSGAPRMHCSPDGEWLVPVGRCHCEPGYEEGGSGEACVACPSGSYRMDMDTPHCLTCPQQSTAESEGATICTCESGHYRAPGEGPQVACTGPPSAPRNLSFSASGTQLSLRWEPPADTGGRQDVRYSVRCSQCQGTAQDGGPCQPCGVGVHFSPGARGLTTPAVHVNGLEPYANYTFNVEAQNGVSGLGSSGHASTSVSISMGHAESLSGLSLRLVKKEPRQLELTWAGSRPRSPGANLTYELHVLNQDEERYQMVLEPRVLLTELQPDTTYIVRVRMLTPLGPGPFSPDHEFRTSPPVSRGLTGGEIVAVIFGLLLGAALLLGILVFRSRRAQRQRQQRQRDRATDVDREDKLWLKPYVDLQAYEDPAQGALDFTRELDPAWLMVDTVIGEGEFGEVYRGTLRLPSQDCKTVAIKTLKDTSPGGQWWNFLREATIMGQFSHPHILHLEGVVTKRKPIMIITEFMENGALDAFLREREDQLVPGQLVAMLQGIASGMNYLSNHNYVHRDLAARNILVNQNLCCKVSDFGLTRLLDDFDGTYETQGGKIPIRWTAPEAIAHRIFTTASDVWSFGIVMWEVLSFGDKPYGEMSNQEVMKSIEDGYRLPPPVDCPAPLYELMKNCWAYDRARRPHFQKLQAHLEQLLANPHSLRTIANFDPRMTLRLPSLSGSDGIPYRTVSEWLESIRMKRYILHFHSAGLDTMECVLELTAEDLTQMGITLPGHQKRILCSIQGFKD", "procedure,_shortened": "as §1"}, "[7]": {"molecular_target": "T7, CAMK1a (Homo sapiens, UniProt Q14012)", "T7 construct": "purchased Reaction Biology Corp", "T7 sequence (Q14012 whole entry)": "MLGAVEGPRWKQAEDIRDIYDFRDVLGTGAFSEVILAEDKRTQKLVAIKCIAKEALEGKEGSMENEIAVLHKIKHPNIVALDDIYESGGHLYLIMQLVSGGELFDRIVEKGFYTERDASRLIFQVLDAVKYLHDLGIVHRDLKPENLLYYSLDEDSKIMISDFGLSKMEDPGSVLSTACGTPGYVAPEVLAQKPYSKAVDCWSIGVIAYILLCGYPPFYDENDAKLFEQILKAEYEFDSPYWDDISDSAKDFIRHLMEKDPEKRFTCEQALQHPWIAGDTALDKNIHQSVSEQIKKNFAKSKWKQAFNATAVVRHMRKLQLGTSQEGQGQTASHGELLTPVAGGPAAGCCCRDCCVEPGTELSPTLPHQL", "procedure,_shortened": "as §1"}, "[8]": {"molecular_target": "T8, WEE1 (Homo sapiens, UniProt P30291)", "T8 construct": "purchased Reaction Biology Corp", "T8 sequence (P30291 whole entry)": "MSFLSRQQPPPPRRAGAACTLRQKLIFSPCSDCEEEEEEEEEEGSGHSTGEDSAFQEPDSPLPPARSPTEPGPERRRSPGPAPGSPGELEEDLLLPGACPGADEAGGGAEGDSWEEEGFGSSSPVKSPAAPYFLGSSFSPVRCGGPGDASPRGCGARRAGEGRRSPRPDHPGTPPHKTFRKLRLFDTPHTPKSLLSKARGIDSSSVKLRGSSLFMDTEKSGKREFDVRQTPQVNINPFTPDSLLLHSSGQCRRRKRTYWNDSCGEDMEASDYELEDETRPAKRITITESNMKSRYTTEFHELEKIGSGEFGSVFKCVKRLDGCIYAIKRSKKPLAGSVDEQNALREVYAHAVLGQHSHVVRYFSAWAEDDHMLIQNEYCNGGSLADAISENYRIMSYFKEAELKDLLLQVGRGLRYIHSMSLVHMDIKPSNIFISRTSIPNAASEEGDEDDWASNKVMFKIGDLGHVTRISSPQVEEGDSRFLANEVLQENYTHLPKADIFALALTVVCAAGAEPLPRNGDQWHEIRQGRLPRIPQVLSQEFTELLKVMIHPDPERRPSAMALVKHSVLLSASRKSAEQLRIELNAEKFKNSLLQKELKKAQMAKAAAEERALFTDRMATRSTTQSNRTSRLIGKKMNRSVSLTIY", "procedure,_shortened": "as §1"}, "[9]": {"molecular_target": "T9, GCK/MAP4K2 (Homo sapiens, UniProt Q12851)", "T9 construct": "purchased Reaction Biology Corp", "T9 sequence (Q12851 1-820)": "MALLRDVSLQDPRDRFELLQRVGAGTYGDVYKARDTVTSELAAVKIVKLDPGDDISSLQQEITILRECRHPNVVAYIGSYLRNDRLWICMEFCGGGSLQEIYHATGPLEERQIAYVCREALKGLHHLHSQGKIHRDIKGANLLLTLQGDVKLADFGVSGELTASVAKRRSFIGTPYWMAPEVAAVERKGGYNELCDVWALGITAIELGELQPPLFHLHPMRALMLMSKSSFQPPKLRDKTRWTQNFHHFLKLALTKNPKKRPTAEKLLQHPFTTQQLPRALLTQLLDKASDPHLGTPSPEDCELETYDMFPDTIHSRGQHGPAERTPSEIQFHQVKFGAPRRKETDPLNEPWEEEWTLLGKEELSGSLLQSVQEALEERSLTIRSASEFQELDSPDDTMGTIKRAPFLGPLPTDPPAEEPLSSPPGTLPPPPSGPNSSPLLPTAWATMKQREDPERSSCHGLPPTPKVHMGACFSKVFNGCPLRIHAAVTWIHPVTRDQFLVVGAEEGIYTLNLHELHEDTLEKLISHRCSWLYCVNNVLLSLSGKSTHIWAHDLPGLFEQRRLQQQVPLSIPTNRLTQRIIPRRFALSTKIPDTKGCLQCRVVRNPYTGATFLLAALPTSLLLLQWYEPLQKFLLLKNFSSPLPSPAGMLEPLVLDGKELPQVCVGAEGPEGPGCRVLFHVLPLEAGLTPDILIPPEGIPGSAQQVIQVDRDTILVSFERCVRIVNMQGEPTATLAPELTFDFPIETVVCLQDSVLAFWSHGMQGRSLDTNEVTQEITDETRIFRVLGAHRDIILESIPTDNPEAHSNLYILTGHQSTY", "procedure,_shortened": "as §1"}, "[10]": {"settings": "read-out: % Enzyme Activity (relative to DMSO controls) AVG"}, "[11]": {"settings": "read-out: % Enzyme Activity (relative to DMSO controls) Data 1"}, "[12]": {"settings": "read-out: % Enzyme Activity (relative to DMSO controls) Data 2"}}, "note": "Like-named read-outs stand apart in the source and are kept apart here."}
{"smiles": "CC(C)(C)C(=O)N1N=CC[C@H]1c1ccccc1", "note": "[GSK′963]", "values": [{"measurement": "remaining activity at 10 µM", "setting": "[1]; [10]", "value": 97.7, "unit": "%"}, {"measurement": "remaining activity at 10 µM", "setting": "[1]; [11]", "value": 93.2, "unit": "%"}, {"measurement": "remaining activity at 10 µM", "setting": "[1]; [12]", "value": 102, "unit": "%"}, {"measurement": "remaining activity at 10 µM", "setting": "[2]; [10]", "value": 107, "unit": "%"}, {"measurement": "remaining activity at 10 µM", "setting": "[2]; [11]", "value": 108, "unit": "%"}, {"measurement": "remaining activity at 10 µM", "setting": "[2]; [12]", "value": 106, "unit": "%"}, {"measurement": "remaining activity at 10 µM", "setting": "[3]; [10]", "value": 88.6, "unit": "%"}, {"measurement": "remaining activity at 10 µM", "setting": "[3]; [11]", "value": 84, "unit": "%"}, {"measurement": "remaining activity at 10 µM", "setting": "[3]; [12]", "value": 93.2, "unit": "%"}, {"measurement": "remaining activity at 10 µM", "setting": "[4]; [10]", "value": 97.9, "unit": "%"}, {"measurement": "remaining activity at 10 µM", "setting": "[4]; [11]", "value": 100, "unit": "%"}, {"measurement": "remaining activity at 10 µM", "setting": "[4]; [12]", "value": 95.5, "unit": "%"}, {"measurement": "remaining activity at 10 µM", "setting": "[5]; [10]", "value": 115, "unit": "%"}, {"measurement": "remaining activity at 10 µM", "setting": "[5]; [11]", "value": 114, "unit": "%"}, {"measurement": "remaining activity at 10 µM", "setting": "[5]; [12]", "value": 116, "unit": "%"}, {"measurement": "remaining activity at 10 µM", "setting": "[6]; [10]", "value": 106, "unit": "%"}, {"measurement": "remaining activity at 10 µM", "setting": "[6]; [11]", "value": 107, "unit": "%"}, {"measurement": "remaining activity at 10 µM", "setting": "[6]; [12]", "value": 106, "unit": "%"}, {"measurement": "remaining activity at 10 µM", "setting": "[7]; [10]", "value": 96.3, "unit": "%"}, {"measurement": "remaining activity at 10 µM", "setting": "[7]; [11]", "value": 99.3, "unit": "%"}, {"measurement": "remaining activity at 10 µM", "setting": "[7]; [12]", "value": 93.3, "unit": "%"}, {"measurement": "remaining activity at 10 µM", "setting": "[8]; [10]", "value": 85.6, "unit": "%"}, {"measurement": "remaining activity at 10 µM", "setting": "[8]; [11]", "value": 81.9, "unit": "%"}, {"measurement": "remaining activity at 10 µM", "setting": "[8]; [12]", "value": 89.2, "unit": "%"}, {"measurement": "remaining activity at 10 µM", "setting": "[9]; [10]", "value": 109, "unit": "%"}, {"measurement": "remaining activity at 10 µM", "setting": "[9]; [11]", "value": 108, "unit": "%"}, {"measurement": "remaining activity at 10 µM", "setting": "[9]; [12]", "value": 110, "unit": "%"}]}
